System: OVCAR-5 complex spheroid (HUVEC/MSC), viability % T/C
Assay: Anticancer human tumor OVCAR-5 cell line growth inhibition [Asc];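 note: spheroids exposed to agents for 7 days before readout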;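 for viability, T/C: 100% = DMSO vehicle-treated wells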
Settings: for IC50: curve of first compound; for viability, T/C: stronger effect = lower value
Summary of the method: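 Complex solid-tumor spheroids incorporating human endothelial and mesenchymal stem cells received single agents or combinations over half-log dilution ranges anchored to clinical Cmax.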

[1] = second compound 0.1 µM, first compound 0.00316 µM
[2] = second compound 0.1 µM, first compound 0.01 µM
[3] = second compound 0.1 µM, first compound 0.0316 µM
[4] = second compound 0.1 µM, first compound 0.1 µM
[5] = second compound 0.316 µM, first compound 0.00316 µM
[6] = second compound 0.316 µM, first compound 0.01 µM
[7] = second compound 0.316 µM, first compound 0.0316 µM
[8] = second compound 0.316 µM, first compound 0.1 µM
[9] = second compound 1 µM, first compound 0.00316 µM
[10] = second compound 1 µM, first compound 0.01 µM
[11] = second compound 1 µM, first compound 0.0316 µM
[12] = second compound 1 µM, first compound 0.1 µM
[13] = second compound 3.16 µM, first compound 0.00316 µM
[14] = second compound 3.16 µM, first compound 0.01 µM
[15] = second compound 3.16 µM, first compound 0.0316 µM
[16] = second compound 3.16 µM, first compound 0.1 µM
[17] = second compound 10 µM, first compound 0.00316 µM
[18] = second compound 10 µM, first compound 0.01 µM
[19] = second compound 10 µM, first compound 0.0316 µM
[20] = second compound 10 µM, first compound 0.1 µM

`COc1c(OCCCN2CCOCC2)ccc2c3n(c(=NC(=O)c4cnc(N)nc4)nc12)CCN3` + Cc1c(S(C)(=O)=O)c(-c2cc(F)cc(N3CCN(c4ccc(NS(=O)(=O)c5ccc(NC(CCN6CCC(C(=O)OCCCP(=O)(O)O)CC6)CSc6ccccc6)c(S(=O)(=O)C(F)(F)F)c5)cc4)CC3)c2)c(-c2ccc(Cl)cc2)n1C(C)C showed an IC50 (second compound 0.1 µM) of 0.028 µM, an IC50 (second compound 0.316 µM) of 0.0181 µM and an IC50 (second compound 1 µM) of 0.0179 µM. It also gave an IC50 (second compound 3.16 µM) of 0.0154 µM, an IC50 (second compound 10 µM) of 0.0177 µM and a viability, T/C [1] of 81.8%. For the same compound, the viability, T/C [2] was 73.3%, the viability, T/C [3] was 46.5% and the viability, T/C [4] was 22%. It also gave a viability, T/C (second compound 0.1 µM, first compound 0.316 µM) of 14.2%, a viability, T/C (second compound 0.1 µM, first compound 1 µM) of 5.21% and a viability, T/C [5] of 74.7%. For the same compound, the viability, T/C [6] was 63.4%, the viability, T/C [7] was 37% and the viability, T/C [8] was 20.3%. The viability, T/C (second compound 0.316 µM, first compound 0.316 µM) was 9.08%, the viability, T/C (second compound 0.316 µM, first compound 1 µM) was 2.87% and the viability, T/C [9] was 68.8%. It also gave a viability, T/C [10] of 65.4%, a viability, T/C [11] of 35.3% and a viability, T/C [12] of 10.8%. The viability, T/C (second compound 1 µM, first compound 0.316 µM) was 5.94%, the viability, T/C (second compound 1 µM, first compound 1 µM) was 2.46% and the viability, T/C [13] was 64.5%. The viability, T/C [14] was 63.7%, the viability, T/C [15] was 29.7% and the viability, T/C [16] was 10.2%. It also gave a viability, T/C (second compound 3.16 µM, first compound 0.316 µM) of 3.29%, a viability, T/C (second compound 3.16 µM, first compound 1 µM) of 1.07% and a viability, T/C [17] of 86.5%. For the same compound, the viability, T/C [18] was 68.7%, the viability, T/C [19] was 31.2% and the viability, T/C [20] was 7.93%. For the same compound, the viability, T/C (second compound 10 µM, first compound 0.316 µM) was 2.43% and the viability, T/C (second compound 10 µM, first compound 1 µM) was 1.35%.

In the case of `NC(=O)C(=Cn1cnc(-c2cc(C(F)(F)F)cc(C(F)(F)F)c2)n1)c1cncnc1` + Cc1c(S(C)(=O)=O)c(-c2cc(F)cc(N3CCN(c4ccc(NS(=O)(=O)c5ccc(NC(CCN6CCC(C(=O)OCCCP(=O)(O)O)CC6)CSc6ccccc6)c(S(=O)(=O)C(F)(F)F)c5)cc4)CC3)c2)c(-c2ccc(Cl)cc2)n1C(C)C, the IC50 (second compound 0.1 µM) is reported as 0.199 µM, the IC50 (second compound 0.316 µM) is reported as 0.137 µM and the IC50 (second compound 1 µM) is reported as 0.106 µM. For the same compound, the IC50 (second compound 3.16 µM) was 0.0639 µM, the IC50 (second compound 10 µM) was 0.0668 µM and the viability, T/C (second compound 0.1 µM, first compound 0.000949 µM) was 106%. The viability, T/C (second compound 0.1 µM, first compound 0.003 µM) was 99.1%, the viability, T/C (second compound 0.1 µM, first compound 0.00949 µM) was 91.7% and the viability, T/C (second compound 0.1 µM, first compound 0.03 µM) was 79.6%. For the same compound, the viability, T/C (second compound 0.1 µM, first compound 0.0949 µM) was 82.2%, the viability, T/C (second compound 0.1 µM, first compound 0.3 µM) was 34.8% and the viability, T/C (second compound 0.316 µM, first compound 0.000949 µM) was 100%. For the same compound, the viability, T/C (second compound 0.316 µM, first compound 0.003 µM) was 96.2%, the viability, T/C (second compound 0.316 µM, first compound 0.00949 µM) was 93.7% and the viability, T/C (second compound 0.316 µM, first compound 0.03 µM) was 77.6%. The viability, T/C (second compound 0.316 µM, first compound 0.0949 µM) was 60.3%, the viability, T/C (second compound 0.316 µM, first compound 0.3 µM) was 29.3% and the viability, T/C (second compound 1 µM, first compound 0.000949 µM) was 98.3%. The viability, T/C (second compound 1 µM, first compound 0.003 µM) was 103%, the viability, T/C (second compound 1 µM, first compound 0.00949 µM) was 79.7% and the viability, T/C (second compound 1 µM, first compound 0.03 µM) was 79%. It also gave a viability, T/C (second compound 1 µM, first compound 0.0949 µM) of 53.1%, a viability, T/C (second compound 1 µM, first compound 0.3 µM) of 19.1% and a viability, T/C (second compound 3.16 µM, first compound 0.000949 µM) of 97.1%. The viability, T/C (second compound 3.16 µM, first compound 0.003 µM) was 98.5%, the viability, T/C (second compound 3.16 µM, first compound 0.00949 µM) was 91.8% and the viability, T/C (second compound 3.16 µM, first compound 0.03 µM) was 66.3%. The viability, T/C (second compound 3.16 µM, first compound 0.0949 µM) was 41.9%, the viability, T/C (second compound 3.16 µM, first compound 0.3 µM) was 17% and the viability, T/C (second compound 10 µM, first compound 0.000949 µM) was 119%. For the same compound, the viability, T/C (second compound 10 µM, first compound 0.003 µM) was 121%, the viability, T/C (second compound 10 µM, first compound 0.00949 µM) was 111% and the viability, T/C (second compound 10 µM, first compound 0.03 µM) was 85.2%. For the same compound, the viability, T/C (second compound 10 µM, first compound 0.0949 µM) was 34.5% and the viability, T/C (second compound 10 µM, first compound 0.3 µM) was 8.64%.

Compound `NC1CCC(NC2CC2c2ccccc2)CC1` (stereo not given) + Cc1c(S(C)(=O)=O)c(-c2cc(F)cc(N3CCN(c4ccc(NS(=O)(=O)c5ccc(NC(CCN6CCC(C(=O)OCCCP(=O)(O)O)CC6)CSc6ccccc6)c(S(=O)(=O)C(F)(F)F)c5)cc4)CC3)c2)c(-c2ccc(Cl)cc2)n1C(C)C has an IC50 (second compound 0.1 µM) of over 0.1 µM, an IC50 (second compound 0.316 µM) of over 0.1 µM and an IC50 (second compound 1 µM) of over 0.1 µM. For the same compound, the IC50 (second compound 3.16 µM) was over 0.1 µM, the IC50 (second compound 10 µM) was over 0.1 µM and the viability, T/C (second compound 0.1 µM, first compound 0.000316 µM) was 86%. The viability, T/C (second compound 0.1 µM, first compound 0.001 µM) was 103%, the viability, T/C [1] was 89.5% and the viability, T/C [2] was 94.1%. It also gave a viability, T/C [3] of 103%, a viability, T/C [4] of 92.3% and a viability, T/C (second compound 0.316 µM, first compound 0.000316 µM) of 87.9%. For the same compound, the viability, T/C (second compound 0.316 µM, first compound 0.001 µM) was 95.6%, the viability, T/C [5] was 85% and the viability, T/C [6] was 81.9%. It also gave a viability, T/C [7] of 90.3%, a viability, T/C [8] of 93.1% and a viability, T/C (second compound 1 µM, first compound 0.000316 µM) of 94.7%. The viability, T/C (second compound 1 µM, first compound 0.001 µM) was 94.2%, the viability, T/C [9] was 90.7% and the viability, T/C [10] was 81%. The viability, T/C [11] was 92.4%, the viability, T/C [12] was 86.3% and the viability, T/C (second compound 3.16 µM, first compound 0.000316 µM) was 94.9%. It also gave a viability, T/C (second compound 3.16 µM, first compound 0.001 µM) of 95.5%, a viability, T/C [13] of 83.7% and a viability, T/C [14] of 76%. It also gave a viability, T/C [15] of 93.2%, a viability, T/C [16] of 87.8% and a viability, T/C (second compound 10 µM, first compound 0.000316 µM) of 115%. The viability, T/C (second compound 10 µM, first compound 0.001 µM) was 110%, the viability, T/C [17] was 120% and the viability, T/C [18] was 107%. It also gave a viability, T/C [19] of 104% and a viability, T/C [20] of 112%.

Reference: PubChem BioAssay AID1963436 (Molecular Pharmacology Branch, DTP, NCI, 2024)
